Drawing on patent publication US20220235064A1 (WELLMARKER BIO CO., LTD., priority 2019, published 2022), this text covers IC50 and cytotoxicity for 14 molecules.

The target in experiment [1] is T1, RON tyrosine kinase (Homo sapiens, UniProt Q04912).
T1 construct: purchased Carna Bioscience
The experiment is described as follows: Enzyme inhibitory activity against RON tyrosine kinase (TR-FRET). The following applies: RON (Carna Bioscience). It counts as biochemical. The protocol:
Experimental Example 1: Measurement of Enzyme Inhibitory Activity Against RON Tyrosine Kinase
To measure enzyme inhibitory activity of the example compounds against RON, IC50 values of the compounds were measured using fluorescence resonance energy transfer (FRET).
Specifically, first, RON (Carna Bioscience) was diluted in a kinase assay buffer (50 mM HEPES pH 7.5, 1 mM EGTA, 10 mM MgCl2, 2 mM DTT, and 0.01% Tween-20) to be at a concentration (0.4 nM) that is twice the final reaction concentration. The dilute was added to a 384-well-plate at 5 μl per well. Each of the example compounds was prepared at a concentration of 1 mM in 100% DMSO and diluted 8 times in a stepwise manner through 10-fold dilution. Each compound was diluted in a kinase assay buffer to be at a concentration that is 4 times the final reaction concentration. The dilute was added to a 384-well-plate at 2.5 μl per well, and incubation was performed at room temperature for 15 minutes.
Thereafter, an ATP solution (Sigma Aldrich) prepared at a concentration of 0.25 M was diluted in a kinase assay buffer to be at a concentration (60 μM) that is 4 times the final reaction concentration. Dilution of a tyrosine peptide substrate (Perkin-Elmer) was performed therein to be at a concentration (400 nM) that is 4 times the final reaction concentration. The dilute was added to a 384-well-plate at 2.5 µl per well. Reaction was allowed to proceed for 60 minutes by incubating the 384-well-plate at room temperature. Thereafter, EDTA (Sigma Aldrich) was diluted in a TR-FRET detection buffer (Perkin-Elmer) to be at a concentration (20 mM) that is twice the final reaction concentration. Dilution of a Europium-containing phosphotyrosine antibody (Perkin-Elmer) was performed in the diluted EDTA solution to be at a concentration (4 nM) that is twice the final reaction concentration, so that a stop solution for RON reaction was prepared.
The stop solution was added to the 384-well-plate at 10 μl per well to quench the reaction, and incubation was performed at room temperature for 60 minutes. Then, the 384-well-plate was read on a Victor X5 (Perkin-Elmer) plate reader. Here, the excitation wavelength was 340 nm, and the emission wavelengths were 620 nm and 665 nm. An IC50 value of the compound was derived using GraphPad Prism 5 program, in which the IC50 was derived by expressing emission energy at the wavelength of 665 nm as a function of the compound concentration.

The test system of experiment [2] is cancer cell line KM12C, in which RON is activated. The experiment is described as follows: Cell growth inhibitory ability in RON-activated cancer cell line (MTS). It counts as cell-based. The following applies: Homo sapiens, 48 hours, absorbance 490 nm. The protocol:
Experimental Example 2: Identification of Cell Growth Inhibitory Ability of Example Compounds in RON-Activated Cancer Cell Line
The cancer cell line KM12C (80015, KCLB, MEM+1K° FBS), in which RON is activated, was treated with each of the example compounds at a concentration of 10 μM, and then reaction was allowed to proceed for 48 hours. 24 hours after completion of the reaction, 20 μl of MTS solution (CellTiter 96 Aqueous One Solution Cell Proliferation Assay, product number: G3581, Promega) was added to each well, and then incubation was performed at a temperature of 37° C. in 50 CO2 incubator for 4 hours. Then, an IC50 value of the compound was derived by measuring its absorbance value at a wavelength of 490 nm using a Victor X5 plate reader. Here, as a positive control, N-(4-(2-amino-3-chloropyridin-4-yloxy)-3-fluorophenyl)-4-ethoxy-1-(4-fluorophenyl)-2-oxo-1,2-dihydropyridine-3-carboxamide, which is the compound of Example 1 in WO 2008/058229 A1, was used.

For experiment [3] the test system is unchanged. The experiment is described as follows: Cell-killing efficacy in RON-activated cancer cell line (trypan blue). It counts as cell-based. The following applies: Homo sapiens, 48 hours, trypan blue, n=2, read-out: Cell death (%) Cancer cell line KM12C. The procedure: Experimental Example 3: Measurement of Cell-Killing Efficacy of Example Compounds in RON-Activated Cancer Cell Line
The cancer cell line KM12C (80015, KCLB, MEM+10% FBS), in which RON is activated, was dispensed into each 60 mm^2 dish at 1×10^5 cells. After 24 hours, the dish was treated with each of the example compounds at a concentration of 1 μM or 5 μM while performing medium exchange, and then reaction was allowed to proceed for 48 hours. After 48 hours, centrifugation was performed for 4 minutes at 1,500 rpm to collect cells and cell fluid. Thereafter, living cells and dead cells were quantified (n=2) using a trypan blue solution (15250-061, Gibco), and statistical analysis was performed using Excel-T-test. Here, as a negative control, only a solvent (0.100 DMSO) was used; and as a positive control, N-(4-(2-amino-3-chloropyridin-4-yloxy)-3-fluorophenyl)-4-ethoxy-1-(4-fluorophenyl)-2-oxo-1,2-dihydropyridine-3-carboxamide, which is the compound of Example 1 in WO 2008/058229 A1, was used.

T1 sequence (Q04912 25-1400): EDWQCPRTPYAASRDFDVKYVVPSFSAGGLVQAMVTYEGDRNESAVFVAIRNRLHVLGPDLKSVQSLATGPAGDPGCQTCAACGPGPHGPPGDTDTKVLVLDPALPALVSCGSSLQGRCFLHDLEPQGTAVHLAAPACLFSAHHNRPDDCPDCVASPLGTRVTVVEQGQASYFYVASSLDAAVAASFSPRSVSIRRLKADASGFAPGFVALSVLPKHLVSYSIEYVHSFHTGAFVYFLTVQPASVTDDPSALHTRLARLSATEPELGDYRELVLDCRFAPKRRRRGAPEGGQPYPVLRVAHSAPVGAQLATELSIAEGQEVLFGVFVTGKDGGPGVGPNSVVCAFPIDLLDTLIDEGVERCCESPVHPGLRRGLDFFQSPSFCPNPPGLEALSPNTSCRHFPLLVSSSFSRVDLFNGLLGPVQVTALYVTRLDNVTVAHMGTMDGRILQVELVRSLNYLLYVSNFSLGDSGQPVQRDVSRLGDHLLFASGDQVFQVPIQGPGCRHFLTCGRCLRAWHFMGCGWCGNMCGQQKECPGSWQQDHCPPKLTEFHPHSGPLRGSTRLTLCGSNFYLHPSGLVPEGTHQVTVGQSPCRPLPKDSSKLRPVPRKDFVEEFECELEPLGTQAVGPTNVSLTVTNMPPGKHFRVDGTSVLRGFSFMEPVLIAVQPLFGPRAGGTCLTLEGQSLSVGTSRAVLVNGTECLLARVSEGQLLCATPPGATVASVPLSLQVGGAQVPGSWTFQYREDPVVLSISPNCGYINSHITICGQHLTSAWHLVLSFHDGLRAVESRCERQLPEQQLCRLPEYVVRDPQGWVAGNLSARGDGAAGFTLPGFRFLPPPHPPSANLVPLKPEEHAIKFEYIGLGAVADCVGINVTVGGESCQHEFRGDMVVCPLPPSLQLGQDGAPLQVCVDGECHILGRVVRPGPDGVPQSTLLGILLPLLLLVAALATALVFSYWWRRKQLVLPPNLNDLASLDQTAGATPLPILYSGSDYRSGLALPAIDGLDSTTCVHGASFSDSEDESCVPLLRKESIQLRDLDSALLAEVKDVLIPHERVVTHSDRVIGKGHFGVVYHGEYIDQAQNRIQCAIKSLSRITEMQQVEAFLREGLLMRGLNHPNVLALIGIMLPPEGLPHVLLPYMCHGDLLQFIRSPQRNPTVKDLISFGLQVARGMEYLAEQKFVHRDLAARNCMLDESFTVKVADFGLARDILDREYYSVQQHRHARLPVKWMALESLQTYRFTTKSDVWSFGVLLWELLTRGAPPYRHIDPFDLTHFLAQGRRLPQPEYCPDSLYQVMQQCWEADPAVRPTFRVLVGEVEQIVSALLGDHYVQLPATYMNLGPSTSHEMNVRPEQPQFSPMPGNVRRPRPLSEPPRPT

Turning to `Cn1cnc(-c2cc3nccc(Oc4ccc(NC(=O)c5c6c(cn(-c7ccccc7)c5=O)CCO6)cc4F)c3s2)c1` [Example 9, N-(3-Fluoro-4-((2-(1-methyl-1H-imidazol-4-yl)thieno[3,2-b]pyridin-7-yl)oxy)phenyl)-6-oxo-5-phenyl-2,3,5,6-tetrahydrofuro[3,2-c]pyridine-7-carboxamide], the IC50 amounted to 0.5 nM in experiment [1] and 0.6 nM in experiment [2].
Consider `O=C(Nc1ccc(Oc2ccnc3ccc(OCCN4CCOCC4)cc23)c(F)c1)c1c2c(cn(-c3ccc(F)cc3)c1=O)CCO2` [Example 177, N-(3-Fluoro-4-((6-(2-morpholinoethoxy)quinolin-4-yl)oxy)phenyl)-5-(4-fluorophenyl)-6-oxo-2,3,5,6-tetrahydrofuro[3,2-c]pyridine-7-carboxamide], for which the values for the IC50 in experiment [1] and in experiment [2] were 0.83 nM and 6 nM, respectively.
Consider `CNC(=O)c1cc2c(Oc3ccc(NC(=O)c4c5c(cn(-c6ccc(F)cc6)c4=O)CCO5)cc3F)ccnc2cc1OCCN1CCOCC1` [Example 163, N-(3-Fluoro-4-((6-(methylcarbamoyl)-7-(2-morpholinoethoxy)quinolin-4-yl)oxy)phenyl)-5-(4-fluorophenyl)-6-oxo-2,3,5,6-tetrahydrofuro[3,2-c]pyridine-7-carboxamide], for which the IC50 in experiment [1] was found to be 0.1 nM; in experiment [2], 2 nM.
Turning to `O=C(Nc1ccc(Oc2ncnc3[nH]ccc23)c(F)c1)c1c2c(cn(-c3ccc(F)cc3)c1=O)CCO2` [Example 71, N-(4-((7H-pyrrolo[2,3-d]pyrimidin-4-yl)oxy)-3-fluorophenyl)-5-(4-fluorophenyl)-6-oxo-2,3,5,6-tetrahydrofuro[3,2-c]pyridine-7-carboxamide], the IC50 in experiment [1] stood at 8.24 nM; in experiment [2], 11 nM.
With `COc1cc2nccc(Oc3ccc(NC(=O)c4c5c(cn(-c6ccc(F)cc6)c4=O)CCO5)cc3F)c2cc1N` [Example 179, N-(4-((6-Amino-7-methoxyquinolin-4-yl)oxy)-3-fluorophenyl)-5-(4-fluorophenyl)-6-oxo-2,3,5,6-tetrahydrofuro[3,2-c]pyridine-7-carboxamide], the results for the IC50 in experiment [1] and in experiment [2] were 0.47 nM and 3 nM, respectively.
For the molecule `O=C(Nc1ccc(Oc2ccnc3ccc(OCCCN4CCOCC4)cc23)c(F)c1)c1c2c(cn(-c3ccc(F)cc3)c1=O)CCO2` [Example 178, N-(3-Fluoro-4-((6-(3-morpholinopropoxy)quinolin-4-yl)oxy)phenyl)-5-(4-fluorophenyl)-6-oxo-2,3,5,6-tetrahydrofuro[3,2-c]pyridine-7-carboxamide], the IC50 in experiment [1] is 0.45 nM; in experiment [2], 25 nM.
Taken in the same sequence, the figures for `COc1cc2c(Oc3ccc(NC(=O)c4c5c(cn(-c6ccc(F)cc6)c4=O)CCC5)cc3F)ccnc2cc1OCCCN1CCOCC1` [Example 77, N-(3-Fluoro-4-((6-methoxy-7-(3-morpholinopropoxy)quinolin-4-yl)oxy)phenyl)-2-(4-fluorophenyl)-3-oxo-3,5,6,7-tetrahydro-2H-cyclopenta[c]pyridine-4-carboxamide] were 9.32 nM and 10 nM.
Taken in the same sequence, the figures for `COc1cc2c(Oc3ccc(NC(=O)c4c5c(cn(-c6ccccc6)c4=O)CCO5)cc3F)ccnc2cc1OCCN1CCOCC1` [Example 79, N-(3-Fluoro-4-((6-methoxy-7-(2-morpholinoethoxy)quinolin-4-yl)oxy)phenyl)-6-oxo-5-phenyl-2,3,5,6-tetrahydrofuro[3,2-c]pyridine-7-carboxamide] were 0.78 nM and 1 nM.
On to `O=C(Nc1ccc(Oc2ncnc3[nH]ncc23)c(F)c1)c1c2c(cn(-c3ccc(F)cc3)c1=O)CCO2` [Example 73, N-(4-((1H-pyrazolo[3,4-d]pyrimidin-4-yl)oxy)-3-fluorophenyl)-5-(4-fluorophenyl)-6-oxo-2,3,5,6-tetrahydrofuro[3,2-c]pyridine-7-carboxamide], for which the IC50 worked out at 17.5 nM in experiment [1] and 8 nM in experiment [2].
On to `O=C(Nc1ccc(Oc2ccnc3cc(-c4ccc(CN5CCC(O)CC5)cn4)sc23)c(F)c1)c1c2c(cn(-c3ccc(F)cc3)c1=O)CCO2` [Example 29, N-(3-Fluoro-4-((2-(5-((4-hydroxypiperidin-1-yl)methyl)pyridin-2-yl)thieno[3,2-b]pyridin-7-yl)oxy)phenyl)-5-(4-fluorophenyl)-6-oxo-2,3,5,6-tetrahydrofuro[3,2-c]pyridine-7-carboxamide], for which half-maximal inhibition in experiment [2] (IC50) required 1 nM. Moreover, in experiment [3], the cytotoxicity at 1 µM was 22.6% and the cytotoxicity at 5 µM amounted to 24.5%.
In the case of `COC1CCN(Cc2ccc(-c3cc4nccc(Oc5ccc(NC(=O)c6c7c(cn(-c8ccc(F)cc8)c6=O)CCO7)cc5F)c4s3)nc2)C1` (stereo not drawn) [Example 25, N-(3-Fluoro-4-((2-(5-((3-methoxypyrrolidin-1-yl)methyl)pyridin-2-yl)thieno[3,2-b]pyridin-7-yl)oxy)phenyl)-5-(4-fluorophenyl)-6-oxo-2,3,5,6-tetrahydrofuro[3,2-c]pyridine-7-carboxamide], half-maximal inhibition in experiment [2] (IC50) was put at 1 nM. Moreover, in experiment [3], the cytotoxicity at 1 µM amounted to 17.5% and the cytotoxicity at 5 µM was determined as 21%.
In the case of `COC1CN(Cc2ccc(-c3cc4nccc(Oc5ccc(NC(=O)c6c7c(cn(-c8ccc(F)cc8)c6=O)CCO7)cc5F)c4s3)nc2)C1` [Example 14, N-(3-Fluoro-4-((2-(5-((3-methoxyazetidin-1-yl)methyl)pyridin-2-yl)thieno[3,2-b]pyridin-7-yl)oxy)phenyl)-5-(4-fluorophenyl)-6-oxo-2,3,5,6-tetrahydrofuro[3,2-c]pyridine-7-carboxamide], in experiment [2], the IC50 came to 2 nM. For the same molecule, in experiment [3], the cytotoxicity at 1 µM came out at 13.6% and the cytotoxicity at 5 µM worked out at 21.5%.
Taken in the same sequence, the figures for `O=C(Nc1ccc(Oc2ccnc3cc(-c4ccc(CN5CCC(F)CC5)cn4)sc23)c(F)c1)c1c2c(cn(-c3ccc(F)cc3)c1=O)CCO2` [Example 34, N-(3-Fluoro-4-((2-(5-((4-fluoropiperidin-1-yl)methyl)pyridin-2-yl)thieno[3,2-b]pyridin-7-yl)oxy)phenyl)-5-(4-fluorophenyl)-6-oxo-2,3,5,6-tetrahydrofuro[3,2-c]pyridine-7-carboxamide] were 3 nM, 13.7% and 15.9%.
`O=C(Nc1ccc(Oc2ccnc3cc(-c4ccc(CN5CC(F)C5)cn4)sc23)c(F)c1)c1c2c(cn(-c3ccc(F)cc3)c1=O)CCO2` [Example 17, N-(3-Fluoro-4-((2-(5-((3-fluoroazetidin-1-yl)methyl)pyridin-2-yl)thieno[3,2-b]pyridin-7-yl)oxy)phenyl)-5-(4-fluorophenyl)-6-oxo-2,3,5,6-tetrahydrofuro[3,2-c]pyridine-7-carboxamide]: half-maximal inhibition in experiment [2] (IC50) required 1 nM. For the same molecule, in experiment [3], the cytotoxicity at 1 µM was determined as 14% and the cytotoxicity at 5 µM turned out to be 27.7%.

What is called IC50 is the concentration needed to halve the response being measured.
